Structures can show the parent of a compound that is named as a salt.
What was measured:
S1P1 [1] = target: T1, S1P1 (Homo sapiens, UniProt P21453); experiment: Receptor binding assay, [33P]sphingosine 1-phosphate, membranes, WGA SPA beads; conditions: membranes from CHO cells expressing S1P1; 25 pM [33P]S1P; 60 min RT
T1 construct: expressed in transfected cells; host or cells: CHO cells (membranes)
Procedure: Receptor binding assay: Membranes were prepared from CHO cells expressing S1P1 or S1P3 for use in ligand and […] binding studies. Cells were suspended in 50 mM TRIS, pH 7.4, 2 mM EDTA, 250 mM Sucrose (buffer A) and 1× Complete protease inhibitor cocktail (Roche), and disrupted at 4° C. by N2 decompression using a cell disruption bomb (Parr Instrument). Following centrifugation at 1000 RPM for 10 min at 4° C., the supernatant was suspended in buffer A and centrifuged again at 19000 RPM for 60 min at 4° C. The pellet was then suspended in 10 mM HEPES, pH 7.4, 1 mM EDTA, 250 mM Sucrose (Buffer B), and 1× Complete EDTA-free protease inhibitor cocktail and homogenized using a potter. Membranes were flash frozen in liquid N2 and stored at −80° C. [33P]sphingosine 1-phosphate (3000 Ci/mmol; American Radiolabeled Chemicals, Inc.) was added to test compounds in DMSO. Membranes and WGA SPA beads (GE Healthcare) were added to give a final volume of 100 μl in 96-well plates with assay concentrations of 25 pM or 10 pM [33P]sphingosine 1-phosphate (respectively for S1P1 or S1P3), 50 mM HEPES, pH 7.5, 5 mM MgCl2, 100 mM NaCl, 0.4% fatty acid-free BSA, 1-5 μg/well of proteins and 100 μg/well of WGA SPA beads. Binding was performed for 60 min at RT on a shaker and bound radioactivity was measured on a PerkinElmer 1450 MicroBeta counter. Specific binding was calculated by subtracting remaining radioactivity in the presence of 1000-fold excess of unlabeled S1P. Binding data were analyzed using the GraphPad Prism program.

S1P1 [2] = target: T1, S1P1; experiment: 35S-GTPγS binding, S1P1 membranes; format: biochemical; conditions: membranes from CHO cells expressing S1P1; 60 min 30° C.
Method in brief: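 CHO-cell membranes expressing S1P1 or S1P3 (1-10 μg) incubated with compounds in 20 mM HEPES pH 7.4, 10 mM MgCl2, 140 mM NaCl, saponin, 0.2% BSA, 1.7 μM GDP and [35S]-GTPγS (20 μl of 1.5 nM added), 60 min at 30° C. Bound radioactivity expressed as % of S1P activation.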

T1 sequence (P21453 whole entry, species assumed): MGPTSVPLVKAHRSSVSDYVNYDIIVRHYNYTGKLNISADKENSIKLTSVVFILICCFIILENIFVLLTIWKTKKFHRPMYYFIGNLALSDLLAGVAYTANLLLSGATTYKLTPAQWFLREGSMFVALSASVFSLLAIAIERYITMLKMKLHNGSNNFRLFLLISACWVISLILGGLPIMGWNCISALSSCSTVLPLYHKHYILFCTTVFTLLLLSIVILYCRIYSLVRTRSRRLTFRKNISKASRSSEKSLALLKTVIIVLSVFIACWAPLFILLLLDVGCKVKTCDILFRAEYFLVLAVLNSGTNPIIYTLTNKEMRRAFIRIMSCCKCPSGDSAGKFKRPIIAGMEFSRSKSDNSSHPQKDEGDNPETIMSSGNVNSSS

SMILES | Ki (S1P1 [1]) | EC50 (S1P1 [2])
CC(C)Oc1ncc(-c2nc(-c3ccc(C(=O)O)c(F)c3)no2)cc1Cl [Example 36, 4-[5-(5-chloro-6-isopropoxypyridin-3-yl)-1,2,4-oxadiazol-3-yl]-2-fluorobenzoic acid] | 0.53 µM | 
O=C(O)c1ccc(-c2noc(-c3ccc(-c4ccccc4C(F)(F)F)cc3)n2)cc1F [Example 1, 2-fluoro-4-{5-[2′-(trifluoromethyl)biphenyl-4-yl]-1,2,4-oxadiazol-3-yl}benzoic acid] | 2.47 µM | 
CC(C)COc1ncc(-c2nc(-c3ccc(C(=O)O)c(F)c3)no2)cc1Cl [Example 34, 4-[5-(5-chloro-6-isobutoxypyridin-3-yl)-1,2,4-oxadiazol-3-yl]-2-fluorobenzoic acid] | 2.93 µM | 4.99 µM
COCc1cc(-c2nc(-c3cccc(C(=O)N(C)CC(=O)O)c3)no2)ccc1-c1ccccc1C [Example 138, N-(3-{5-[2-(methoxymethyl)-2′-methylbiphenyl-4-yl]-1,2,4-oxadiazol-3-yl}benzoyl)-N-methylglycine] |  | 0.0486 µM
Cc1ccccc1-c1ccc(-c2nc(-c3ccc(C(=O)O)cc3)no2)cc1C [Example 42, 4-[5-(2,2′-dimethylbiphenyl-4-yl)-1,2,4-oxadiazol-3-yl]benzoic acid] |  | 1.69 µM
CC1CCCCN1c1ccc(-c2nc(-c3ccc(F)c(C(=O)O)c3)no2)cc1C(F)(F)F (stereo not drawn) [Example 33, 2-fluoro-5-{5-[4-(2-methylpiperidin-1-yl)-3-(trifluoromethyl)phenyl]-1,2,4-oxadiazol-3-yl}benzoic acid] |  | 0.18 µM
COCc1cc(-c2nc(-c3ccc(C(=O)OC)c(F)c3)no2)ccc1N1CCCCC1C (stereo not drawn) [Example 113, methyl 2-fluoro-4-{5-[3-(methoxymethyl)-4-(2-methylpiperidin-1-yl)phenyl]-1,2,4-oxadiazol-3-yl}benzoate] |  | 0.485 µM
COCc1cc(-c2nc(-c3cc(F)c(C(=O)O)cc3OC)no2)ccc1-c1ccccc1C [Example 112, 2-fluoro-5-methoxy-4-{5-[2-(methoxymethyl)-2′-methylbiphenyl-4-yl]-1,2,4-oxadiazol-3-yl}benzoic acid] |  | 0.102 µM
COCc1cc(-c2nc(-c3ccc(C(=O)NC4(C(=O)O)CC4)c(F)c3)no2)ccc1-c1ccccc1C [Example 120, 1-[(2-fluoro-4-{5-[2-(methoxymethyl)-2′-methylbiphenyl-4-yl]-1,2,4-oxadiazol-3-yl}benzoyl)amino]cyclopropanecarboxylic acid] |  | 0.058 µM
Cc1ccccc1-c1ccc(-c2nc(-c3ccc(C(=O)O)c(F)c3)no2)cc1COCC1CC1 [Example 61, 4-(5-{2-[(cyclopropylmethoxy)methyl]-2′-methylbiphenyl-4-yl}-1,2,4-oxadiazol-3-yl)-2-fluorobenzoic acid] |  | 2.24 µM
Cc1ccccc1-c1ccc(-c2nc(-c3ccc(C(=O)O)c(F)c3)no2)cc1OCC(C)C [Example 104, 2-fluoro-4-[5-(2-isobutoxy-2′-methylbiphenyl-4-yl)-1,2,4-oxadiazol-3-yl]benzoic acid] |  | 0.8 µM
Cc1ccccc1-c1ccc(-c2nc(-c3ccc(C(=O)O)c(F)c3)no2)cc1OC(C)C [Example 101, 2-fluoro-4-[5-(2-isopropoxy-2′-methylbiphenyl-4-yl)-1,2,4-oxadiazol-3-yl]benzoic acid] |  | 0.233 µM
Cc1ccccc1-c1ccc(-c2nc(-c3ccc(C(=O)O)c(Cl)c3)no2)cc1CS(C)(=O)=O [Example 88, 2-chloro-4-(5-{2′-methyl-2-[(methylsulfonyl)methyl]biphenyl-4-yl}-1,2,4-oxadiazol-3-yl)benzoic acid] |  | 4.64 µM
Cc1cccc(C)c1-c1ccc(-c2nc(-c3ccc(C(=O)O)c(F)c3)no2)cc1 [Example 3, 4-[5-(2′,6′-dimethylbiphenyl-4-yl)-1,2,4-oxadiazol-3-yl]-2-fluorobenzoic acid] | 2.6 µM | 
C#CCOc1ncc(-c2nc(-c3ccc(OCC(=O)O)c(F)c3)no2)cc1Cl [Example 51, (4-{5-[5-chloro-6-(prop-2-yn-1-yloxy)pyridin-3-yl]-1,2,4-oxadiazol-3-yl}-2-fluorophenoxy)acetic acid] |  | 2.02 µM
COc1ccc(-c2ccc(-c3nc(-c4ccc(C(=O)O)c(F)c4)no3)cc2C)c(OC)c1 [Example 20, 4-[3-(2′,4′-dimethoxy-2-methylbiphenyl-4-yl)-1,2,4-oxadiazol-3-yl]-2-fluorobenzoic acid] |  | 10.9 µM
Cc1cc(-c2nc(-c3ccc(C(=O)O)c(F)c3)no2)ccc1-c1ccccc1 [Example 6, 2-fluoro-4-[5-(2-methylbiphenyl-4-yl)-1,2,4-oxadiazol-3-yl]benzoic acid] |  | 2.92 µM
Cc1ccccc1-c1ccc(-c2nc(-c3ccc(C(=O)O)c(F)c3)no2)cc1OCC1CC1 [Example 105, 4-{5-[2-(cyclopropylmethoxy)-2′-methylbiphenyl-4-yl]-1,2,4-oxadiazol-3-yl}-2-fluorobenzoic acid] |  | 0.103 µM
COC(=O)c1ccc(-c2noc(-c3ccc(N(C)C)c(NS(C)(=O)=O)c3)n2)cc1F [Example 71, methyl 4-(5-{4-(dimethylamino)-3-[(methylsulfonyl)amino]phenyl}-1,2,4-oxadiazol-3-yl)-2-fluorobenzoate] |  | 0.481 µM
COCc1cc(-c2nc(-c3ccc(Cl)c(C(=O)O)c3)no2)ccc1-c1ccccc1C [Example 108, 2-chloro-5-{5-[2-(methoxymethyl)-2′-methylbiphenyl-4-yl]-1,2,4-oxadiazol-3-yl}benzoic acid] |  | 0.163 µM

Other lines, results leading:

Ki (S1P1 [1]) | EC50 (S1P1 [2]) | SMILES
0.007 µM | 0.005 µM | COCCN(C)Cc1cccc(-c2noc(-c3ccc(-c4ccccc4C)c(COC)c3)n2)c1 [Example 185, 2-methoxy-N-(3-{5-[2-(methoxymethyl)-2′-methylbiphenyl-4-yl]-1,2,4-oxadiazol-3-yl}benzyl)-N-methylethanamine, Hydrochloride salt]
0.007 µM | 0.0021 µM | COCc1cc(-c2nc(-c3ccc(CO)cc3)no2)ccc1-c1ccccc1C [Example 191, (4-{5-[2-(methoxymethyl)-2′-methylbiphenyl-4-yl]-1,2,4-oxadiazol-3-yl}phenyl)methanol]
0.01 µM | 0.03 µM | COCc1cc(-c2nc(-c3ccc(C(=O)O)c(F)c3)no2)ccc1-c1ccccc1C [Example 35, 2-fluoro-4-{5-[2-(methoxymethyl)-2′-methylbiphenyl-4-yl]-1,2,4-oxadiazol-3-yl}benzoic acid]
0.002 µM | 0.006 µM | COCc1cc(-c2nc(-c3ccc(C(=O)NCCC#N)c(F)c3)no2)ccc1-c1ccccc1C [Example 173, N-(2-cyanoethyl)-2-fluoro-{5-[2-(methoxymethyl)-2′-methylbiphenyl-4-yl]-1,2,4-oxadiazol-3-yl}benzamide]
0.01 µM | 0.0016 µM | CC1CCCCN1c1ccc(-c2nc(-c3ccc(S(N)(=O)=O)cc3)no2)cc1NS(C)(=O)=O (stereo not drawn) [Example 37, 4-(5-{4-(2-methylpiperidin-1-yl)-3-[(methylsulfonyl)amino]phenyl}-1,2,4-oxadiazol-3-yl)benzenesulfonamide]
 | 0.0078 µM | COCc1cc(-c2nc(-c3cccc(C(=O)NCCC(=O)O)c3)no2)ccc1-c1ccccc1C [Example 135, N-(3-{5-[2-(methoxymethyl)-2′-methylbiphenyl-4-yl]-1,2,4-oxadiazol-3-yl}benzoyl)-beta-alanine]
 | 0.033 µM | COCCNC(=O)c1ccc(-c2noc(-c3ccc(-c4ccccc4C)c(COC)c3)n2)cc1F [Example 172, 2-fluoro-N-(2-methoxyethyl)-4-{5-[2-(methoxymethyl)-2′-methylbiphenyl-4-yl]-1,2,4-oxadiazol-3-yl}benzamide]
 | 0.0052 µM | COCc1cc(-c2nc(-c3ccc(OCC(=O)O)c(F)c3)no2)ccc1N1CCCCC1C (stereo not drawn) [Example 169, (2-fluoro-4-{5-[3-(methoxymethyl)-4-(2-methylpiperidin-1-yl)phenyl]-1,2,4-oxadiazol-3-yl}phenoxy)acetic acid, hydrochloride salt]
 | 0.0216 µM | COCc1cc(-c2nc(-c3cccc(C(=O)NC4(C(=O)O)CC4)c3)no2)ccc1-c1ccccc1C [Example 133, 1-[(3-{5-[2-(methoxymethyl)-2′-methylbiphenyl-4-yl]-1,2,4-oxadiazol-3-yl}benzoyl)amino]cyclopropanecarboxylic acid]
 | 0.0086 µM | COCc1cc(-c2nc(-c3cccc(C(=O)NCC(=O)OC)c3)no2)ccc1-c1ccccc1C [Example 130, Methyl N-(3-{5-[2-(methoxymethyl)-2′-methylbiphenyl-4-yl]-1,2,4-oxadiazol-3-yl}benzoyl)glycinate]

Source: patent US8202865B2, “Oxadiazole derivatives” (Merck Serono SA, priority 2007, dated 2012)
